Measurements from article PMC5218480 (PLoS ONE, 2017).

Test system: MV-4-11 cells
Experiment: Gene expression microarray analysis (Affymetrix PrimeView) and GSEA
Assay type: cell-based, human
Parameters: RFU PODN (11730768_x_at) / Fold change /veh PODN (11730768_x_at) / RFU LINC00158 (11744669_a_at) / Fold change /veh LINC00158 (11744669_a_at) / RFU DUSP10 (11751237_a_at) / Fold change /veh DUSP10 (11751237_a_at) / RFU ID3 (11757404_x_at) / Fold change /veh ID3 (11757404_x_at) / RFU PLEKHG5 (11737974_s_at) / Fold change /veh PLEKHG5 (11737974_s_at) / RFU LRRC4B (11730491_at) / Fold change /veh LRRC4B (11730491_at) / RFU GIMAP4 (11747438_a_at) / Fold change /veh GIMAP4 (11747438_a_at) / RFU KRT8 (11758183_x_at) / Fold change /veh KRT8 (11758183_x_at) / RFU CNN1 (11734310_a_at) / Fold change /veh CNN1 (11734310_a_at) / RFU VPS37D (11726825_at) / Fold change /veh VPS37D (11726825_at) / RFU C10orf10 (11716522_x_at) / Fold change /veh C10orf10 (11716522_x_at) / RFU KIR2DL2 /// KIR2DL4 /// KIR2DL5A /// KIR2DL5B /// KIR2DS1 /// KIR2DS2 /// KIR2DS3 /// KIR2DS4 /// KIR3DL3 /// KIR3DL3 /// KIR3DS1 (11738374_at) / Fold change /veh KIR2DL2 /// KIR2DL4 /// KIR2DL5A /// KIR2DL5B /// KIR2DS1 /// KIR2DS2 /// KIR2DS3 /// KIR2DS4 /// KIR3DL3 /// KIR3DL3 /// KIR3DS1 (11738374_at) / RFU C1QL1 (11718748_at) / Fold change /veh C1QL1 (11718748_at) / RFU TMPRSS4 (11747572_a_at) / Fold change /veh TMPRSS4 (11747572_a_at) / RFU HAMP (11756126_x_at) / Fold change /veh HAMP (11756126_x_at) / RFU RNFT2 (11725882_a_at) / Fold change /veh RNFT2 (11725882_a_at) / RFU NR4A2 (11747474_a_at) / Fold change /veh NR4A2 (11747474_a_at) / RFU ABCC12 (11746883_a_at) / Fold change /veh ABCC12 (11746883_a_at) / RFU TMEM136 (11760407_x_at) / Fold change /veh TMEM136 (11760407_x_at) / RFU CLDN22 /// WWC2 (11732394_at) / Fold change /veh CLDN22 /// WWC2 (11732394_at) / RFU HLA-DPB1 (11760878_x_at) / Fold change /veh HLA-DPB1 (11760878_x_at) / RFU SPINT1 (11716480_a_at) / Fold change /veh SPINT1 (11716480_a_at) / RFU GAP43 (11754022_s_at) / Fold change /veh GAP43 (11754022_s_at) / RFU A4GNT (11735810_at) / Fold change /veh A4GNT (11735810_at) / RFU PRB3 (11715151_x_at) / Fold change /veh PRB3 (11715151_x_at) / RFU TUBB4B (11761932_at) / Fold change /veh TUBB4B (11761932_at) / RFU CAPN14 (11732068_a_at) / Fold change /veh CAPN14 (11732068_a_at) / RFU TMCC2 (11721928_a_at) / Fold change /veh TMCC2 (11721928_a_at) / RFU IRGQ (11745062_a_at) / Fold change /veh IRGQ (11745062_a_at) / RFU FAM174B (11720279_a_at) / Fold change /veh FAM174B (11720279_a_at) / RFU TMPRSS4 (11748680_a_at) / Fold change /veh TMPRSS4 (11748680_a_at) / RFU FAM212B (11763350_a_at) / Fold change /veh FAM212B (11763350_a_at) / RFU PLEKHG5 (11743358_a_at) / Fold change /veh PLEKHG5 (11743358_a_at) / RFU ZSCAN30 (11745921_a_at) / Fold change /veh ZSCAN30 (11745921_a_at) / RFU CMKLR1 (11741424_a_at) / Fold change /veh CMKLR1 (11741424_a_at) / RFU LOC101060620 /// MAPK8IP1 (11723275_at) / Fold change /veh LOC101060620 /// MAPK8IP1 (11723275_at) / RFU SPTSSB (11747773_x_at) / Fold change /veh SPTSSB (11747773_x_at) / RFU PRSS12 (11739890_at) / Fold change /veh PRSS12 (11739890_at) / RFU BIN1 (11741810_x_at) / Fold change /veh BIN1 (11741810_x_at) / RFU WNT11 (11732464_a_at) / Fold change /veh WNT11 (11732464_a_at) / RFU C10orf10 (11716521_a_at) / Fold change /veh C10orf10 (11716521_a_at) / RFU C5orf56 (11738089_at) / Fold change /veh C5orf56 (11738089_at) / RFU CYB561 (11721691_x_at) / Fold change /veh CYB561 (11721691_x_at) / RFU ANKRD19P (11752326_a_at) / Fold change /veh ANKRD19P (11752326_a_at) / RFU OR2T12 /// OR2T33 /// OR2T8 (11738714_s_at) / Fold change /veh OR2T12 /// OR2T33 /// OR2T8 (11738714_s_at) / RFU VCAN (11748164_a_at) / Fold change /veh VCAN (11748164_a_at) / RFU JSRP1 (11732532_at) / Fold change /veh JSRP1 (11732532_at) / RFU KRTAP10-11 (11738290_x_at) / Fold change /veh KRTAP10-11 (11738290_x_at) / RFU MYO3A (11730013_a_at) / Fold change /veh MYO3A (11730013_a_at) / RFU EBF3 (11725865_a_at) / Fold change /veh EBF3 (11725865_a_at) / RFU CAMK2N1 (11719241_x_at) / Fold change /veh CAMK2N1 (11719241_x_at) / RFU C5orf56 (11738088_a_at) / Fold change /veh C5orf56 (11738088_a_at) / RFU OLFML3 (11715873_a_at) / Fold change /veh OLFML3 (11715873_a_at) / RFU LOC100653217 /// NTM (11731650_a_at) / Fold change /veh LOC100653217 /// NTM (11731650_a_at) / RFU MAPK11 (11762145_a_at) / Fold change /veh MAPK11 (11762145_a_at) / RFU FIZ1 (11724087_x_at) / Fold change /veh FIZ1 (11724087_x_at) / RFU OASL (11726364_x_at) / Fold change /veh OASL (11726364_x_at) / RFU SOX15 (11748057_x_at) / Fold change /veh SOX15 (11748057_x_at) / RFU CD79A (11719716_a_at) / Fold change /veh CD79A (11719716_a_at) / RFU HIST1H1D (11736915_at) / Fold change /veh HIST1H1D (11736915_at) / RFU CASKIN2 (11723855_a_at) / Fold change /veh CASKIN2 (11723855_a_at) / RFU LOC730098 (11760151_x_at) / Fold change /veh LOC730098 (11760151_x_at) / RFU OR4N2 (11742367_at) / Fold change /veh OR4N2 (11742367_at) / RFU PRRT2 (11749266_a_at) / Fold change /veh PRRT2 (11749266_a_at) / RFU SNX32 (11753110_a_at) / Fold change /veh SNX32 (11753110_a_at) / RFU CDHR5 (11726645_a_at) / Fold change /veh CDHR5 (11726645_a_at) / RFU RCAN1 (11760418_a_at) / Fold change /veh RCAN1 (11760418_a_at) / RFU FAM167A (11723789_a_at) / Fold change /veh FAM167A (11723789_a_at) / RFU FAM26E (11764081_at) / Fold change /veh FAM26E (11764081_at) / RFU ISYNA1 (11749810_s_at) / Fold change /veh ISYNA1 (11749810_s_at) / RFU ACY1 (11761880_at) / Fold change /veh ACY1 (11761880_at) / RFU 11764098_at / Fold change /veh 11764098_at / RFU SAMD14 (11745864_x_at) / Fold change /veh SAMD14 (11745864_x_at) / RFU NPB (11741838_a_at) / Fold change /veh NPB (11741838_a_at) / RFU TMPRSS6 (11731388_a_at) / Fold change /veh TMPRSS6 (11731388_a_at) / RFU KRTAP10-2 (11738614_at) / Fold change /veh KRTAP10-2 (11738614_at) / RFU ARHGAP8 /// PRR5-ARHGAP8 (11727945_x_at) / Fold change /veh ARHGAP8 /// PRR5-ARHGAP8 (11727945_x_at) / RFU KRTAP5-7 /// NADSYN1 (11734609_at) / Fold change /veh KRTAP5-7 /// NADSYN1 (11734609_at) / RFU RASL12 (11751679_a_at) / Fold change /veh RASL12 (11751679_a_at) / RFU CDKN2B (11736163_a_at) / Fold change /veh CDKN2B (11736163_a_at) / RFU PRF1 (11729649_at) / Fold change /veh PRF1 (11729649_at) / RFU, ZNF638 /// ZNF638-IT1 / Fold change vs veh, ZNF638 /// ZNF638-IT1 / RFU, PANK3 / Fold change vs veh, PANK3 / RFU, SH3YL1 / Fold change vs veh, SH3YL1 / RFU, ZEB2 / Fold change vs veh, ZEB2 / RFU, NRIP1 / Fold change vs veh, NRIP1 / RFU, PTTG1IP / Fold change vs veh, PTTG1IP / RFU, CAPN2 / Fold change vs veh, CAPN2 / RFU, MED14 / Fold change vs veh, MED14 / RFU, SNORA58 / Fold change vs veh, SNORA58 / RFU, C1orf63 / Fold change vs veh, C1orf63 / RFU, LRRFIP1 / Fold change vs veh, LRRFIP1 / RFU, NDUFAF7 / Fold change vs veh, NDUFAF7 / RFU, SLC12A2 / Fold change vs veh, SLC12A2 / RFU, IBTK / Fold change vs veh, IBTK / RFU, ESF1 / Fold change vs veh, ESF1 / Fold change vs veh, TMEM50B / RFU, TAOK1 / Fold change vs veh, TAOK1 / RFU, ACBD3 / Fold change vs veh, ACBD3 / RFU, TMA16 / Fold change vs veh, TMA16 / RFU, RWDD3 / Fold change vs veh, RWDD3 / RFU, BCAT1 / Fold change vs veh, BCAT1 / RFU, EDEM3 / Fold change vs veh, EDEM3 / RFU, TMEM33 / Fold change vs veh, TMEM33 / RFU, WDR75 / Fold change vs veh, WDR75 / RFU, AHCTF1 / Fold change vs veh, AHCTF1 / RFU, TFRC / Fold change vs veh, TFRC / RFU, ZDHHC17 / Fold change vs veh, ZDHHC17 / RFU, NOM1 / Fold change vs veh, NOM1 / RFU, ARL8B / Fold change vs veh, ARL8B / RFU, ZBTB11 / Fold change vs veh, ZBTB11 / RFU, TAMM41 / Fold change vs veh, TAMM41 / RFU, KIAA1704 /// LOC100996395 / Fold change vs veh, KIAA1704 /// LOC100996395 / RFU, ING1 / Fold change vs veh, ING1 / RFU, TRMT61B / Fold change vs veh, TRMT61B / RFU, FUBP3 / Fold change vs veh, FUBP3 / RFU, TP53 / Fold change vs veh, TP53 / RFU, TNKS2 / Fold change vs veh, TNKS2 / RFU, ZFP14 / Fold change vs veh, ZFP14 / RFU, ACTR2 / Fold change vs veh, ACTR2 / RFU, PPP3R1 / Fold change vs veh, PPP3R1 / RFU, PIK3R1 / Fold change vs veh, PIK3R1 / RFU, HNRNPA1 / Fold change vs veh, HNRNPA1 / RFU, RNF170 / Fold change vs veh, RNF170 / RFU, ZNF28 / Fold change vs veh, ZNF28 / RFU, RNGTT / Fold change vs veh, RNGTT / RFU, OGT / Fold change vs veh, OGT / RFU, BRD1 / Fold change vs veh, BRD1 / RFU, MARS / Fold change vs veh, MARS / RFU, ZNF655 / Fold change vs veh, ZNF655 / RFU, FAHD1 / Fold change vs veh, FAHD1 / RFU, BDP1 / Fold change vs veh, BDP1 / RFU, LRRCC1 / Fold change vs veh, LRRCC1 / RFU, ARID1A / Fold change vs veh, ARID1A / RFU, ZNF146 / Fold change vs veh, ZNF146 / RFU, ZNF330 / Fold change vs veh, ZNF330 / RFU, GPN3 / Fold change vs veh, GPN3 / RFU, C9orf123 / Fold change vs veh, C9orf123 / RFU, N4BP2L2 / Fold change vs veh, N4BP2L2 / RFU, ARFIP1 / Fold change vs veh, ARFIP1 / RFU, FAM179B / Fold change vs veh, FAM179B / RFU, BCL10 / Fold change vs veh, BCL10 / RFU, UHRF1BP1L / Fold change vs veh, UHRF1BP1L / RFU, BET1 / Fold change vs veh, BET1 / RFU, CNOT2 / Fold change vs veh, CNOT2 / RFU, ZNF268 / Fold change vs veh, ZNF268 / Fold change vs veh, ZNF507 / RFU, DGCR2 / Fold change vs veh, DGCR2 / RFU, WDSUB1 / Fold change vs veh, WDSUB1 / Fold change vs veh, HSP90B1 /// MIR3652 / RFU, ADSS / Fold change vs veh, ADSS / RFU, GK / Fold change vs veh, GK / RFU, ZNF148 / Fold change vs veh, ZNF148 / RFU, TAF9 / Fold change vs veh, TAF9 / RFU, SLC1A5 / Fold change vs veh, SLC1A5 / RFU, SLMO2 / Fold change vs veh, SLMO2 / RFU, ABCC4 / Fold change vs veh, ABCC4 / RFU, LOC101060439 /// RAP1B / Fold change vs veh, LOC101060439 /// RAP1B / RFU, RFX7 / Fold change vs veh, RFX7 / RFU, GTPBP10 / Fold change vs veh, GTPBP10 / RFU, CNEP1R1 / Fold change vs veh, CNEP1R1 / RFU, BIVM-ERCC5 /// ERCC5 / Fold change vs veh, BIVM-ERCC5 /// ERCC5 / RFU, ILF3 / Fold change vs veh, ILF3 / RFU 11762660_at / Fold change /veh 11762660_at / RFU VCAN (11757783_s_at) / Fold change /veh VCAN (11757783_s_at) / RFU DDX43 (11728927_at) / Fold change /veh DDX43 (11728927_at) / RFU KRT8 (11758188_x_at) / Fold change /veh KRT8 (11758188_x_at) / RFU NKD1 (11759106_at) / Fold change /veh NKD1 (11759106_at) / RFU SRD5A1 (11742802_a_at) / Fold change /veh SRD5A1 (11742802_a_at) / RFU TPSAB1 /// TPSB2 (11721975_s_at) / Fold change /veh TPSAB1 /// TPSB2 (11721975_s_at) / RFU GSTM3 (11746129_a_at) / Fold change /veh GSTM3 (11746129_a_at) / RFU IL23R (11737362_x_at) / Fold change /veh IL23R (11737362_x_at) / RFU TMEM51 (11727254_a_at) / Fold change /veh TMEM51 (11727254_a_at) / RFU PIWIL2 (11732686_x_at) / Fold change /veh PIWIL2 (11732686_x_at) / RFU ORM1 (11744905_x_at) / Fold change /veh ORM1 (11744905_x_at) / RFU CCDC152 (11743942_at) / Fold change /veh CCDC152 (11743942_at) / RFU ECM1 (11717891_a_at) / Fold change /veh ECM1 (11717891_a_at) / RFU IL23R (11748794_a_at) / Fold change /veh IL23R (11748794_a_at) / RFU TNFAIP8L3 (11732012_x_at) / Fold change /veh TNFAIP8L3 (11732012_x_at) / RFU MBOAT4 (11741988_at) / Fold change /veh MBOAT4 (11741988_at) / RFU 11764193_at / Fold change /veh 11764193_at / RFU TMEM53 (11763286_at) / Fold change /veh TMEM53 (11763286_at) / RFU MAGEB2 (11727129_at) / Fold change /veh MAGEB2 (11727129_at) / RFU TMEM200A (11744735_a_at) / Fold change /veh TMEM200A (11744735_a_at) / RFU CCDC152 (11751479_a_at) / Fold change /veh CCDC152 (11751479_a_at) / RFU FAM211A (11726209_a_at) / Fold change /veh FAM211A (11726209_a_at) / RFU RGS16 (11746705_a_at) / Fold change /veh RGS16 (11746705_a_at) / RFU VCAN (11755009_s_at) / Fold change /veh VCAN (11755009_s_at) / RFU RHOB (11743442_s_at) / Fold change /veh RHOB (11743442_s_at) / RFU RGS16 (11720943_a_at) / Fold change /veh RGS16 (11720943_a_at) / RFU RGS16 (11720944_at) / Fold change /veh RGS16 (11720944_at) / RFU, VPS4B / Fold change vs veh, VPS4B / RFU, CREB1 / Fold change vs veh, CREB1 / RFU, DNAJC13 / Fold change vs veh, DNAJC13 / RFU, GNAQ / Fold change vs veh, GNAQ / RFU, CDK5R1 / Fold change vs veh, CDK5R1 / RFU, ZRANB3 / Fold change vs veh, ZRANB3 / RFU, CUL4A / Fold change vs veh, CUL4A / RFU, CCNY / Fold change vs veh, CCNY / RFU, UFL1 / Fold change vs veh, UFL1 / RFU, COG3 / Fold change vs veh, COG3 / RFU, DIAPH2 / Fold change vs veh, DIAPH2 / RFU, SKA2 / Fold change vs veh, SKA2 / RFU, AFF3 / Fold change vs veh, AFF3 / RFU, LMF1 / Fold change vs veh, LMF1 / RFU, IPO11 / Fold change vs veh, IPO11 / RFU, DFFB / Fold change vs veh, DFFB / RFU, FOXP1 / Fold change vs veh, FOXP1 / RFU, CARD8 / Fold change vs veh, CARD8 / RFU, STRN3 / Fold change vs veh, STRN3 / RFU, ADK / Fold change vs veh, ADK / RFU, RASSF2 / Fold change vs veh, RASSF2 / RFU, WIPF1 / Fold change vs veh, WIPF1 / RFU, LARP1B / Fold change vs veh, LARP1B / RFU, RASA1 / Fold change vs veh, RASA1 / RFU, RB1 / Fold change vs veh, RB1 / RFU, PPFIA1 / Fold change vs veh, PPFIA1 / RFU, MAT2A / Fold change vs veh, MAT2A / RFU, CCT5 / Fold change vs veh, CCT5 / RFU, WDR92 / Fold change vs veh, WDR92 / RFU, CUX1 / Fold change vs veh, CUX1 / RFU, TTC7A / Fold change vs veh, TTC7A / RFU, TMEM135 / Fold change vs veh, TMEM135 / RFU, DEPTOR / Fold change vs veh, DEPTOR / RFU, CPM / Fold change vs veh, CPM / RFU, DNAJB6 / Fold change vs veh, DNAJB6 / RFU, CACNA2D3 / Fold change vs veh, CACNA2D3 / RFU, DTX4 / Fold change vs veh, DTX4 / RFU, TFCP2 / Fold change vs veh, TFCP2 / RFU, GMCL1 /// GMCL1P1 / Fold change vs veh, GMCL1 /// GMCL1P1 / RFU, AEBP2 / Fold change vs veh, AEBP2 / RFU, SNHG1 /// SNORD22 /// SNORD25 /// SNORD26 /// SNORD27 /// SNORD28 /// SNORD29 /// SNORD31 / Fold change vs veh, SNHG1 /// SNORD22 /// SNORD25 /// SNORD26 /// SNORD27 /// SNORD28 /// SNORD29 /// SNORD31 / Fold change (Aza/veh), C12orf56 (ProbeSet 11735607_a_at) / Fold change (ACY-1035/veh), C12orf56 (ProbeSet 11735607_a_at) / Fold change (Aza/veh), FGFR1OP (ProbeSet 11751329_s_at) / Fold change (ACY-1035/veh), FGFR1OP (ProbeSet 11751329_s_at) / Fold change (Aza/veh), VPS36 (ProbeSet 11739960_a_at) / Fold change (ACY-1035/veh), VPS36 (ProbeSet 11739960_a_at) / RFU SYPL1 (11715823_x_at) / Fold change /veh SYPL1 (11715823_x_at) / RFU IGFBP7 (11715501_s_at) / Fold change /veh IGFBP7 (11715501_s_at) / RFU REEP3 (11722064_at) / Fold change /veh REEP3 (11722064_at) / RFU IGLL1 (11728026_x_at) / Fold change /veh IGLL1 (11728026_x_at): dose or concentration left out as unconfirmed
Conditions: MV-4-11 cells, 48 hours

SMILES: Nc1ncn([C@@H]2O[C@H](CO)[C@@H](O)[C@H]2O)c(=O)n1 [azacitidine]
- Fold change /veh KRT8 (11758183_x_at): 1.18
